Measured values published in US11767310B2, “Nicotinamide RIPK1 inhibitors” (AbbVie Inc., priority 2021, dated 2023).
Like-named read-outs stand apart in the source and are kept apart here.

Experiments:
Test in all cases: Kinase binding screen
Settings in all cases: read-out: Percent Control at 100 nM Compound Concentration
[1] = molecular target: ABL1(T315I)-phosphorylated (Homo sapiens (Human), UniProt P00519, T315I)
[2] = molecular target: ABL1-nonphosphorylated (Homo sapiens (Human), UniProt P00519)
[3] = molecular target: ACVRL1 (Homo sapiens (Human), UniProt P37023)
[4] = molecular target: BMX (Homo sapiens (Human), UniProt P51813)
[5] = molecular target: CAMK1D (Homo sapiens (Human), UniProt Q8IU85)
[6] = molecular target: CDKL2 (Homo sapiens (Human), UniProt Q92772)
[7] = molecular target: CSNK1A1L (Homo sapiens (Human), UniProt Q8N752)
[8] = molecular target: EGFR(E746-A750del) (Homo sapiens (Human), UniProt P00533, DEL746-750)
[9] = molecular target: ERK1 (Homo sapiens (Human), UniProt P27361)
[10] = molecular target: FAK (Homo sapiens (Human), UniProt Q05397)
[11] = molecular target: FLT3 (Homo sapiens (Human), UniProt P36888)
[12] = molecular target: FLT4 (Homo sapiens (Human), UniProt P35916)
[13] = molecular target: FYN (Homo sapiens (Human), UniProt P06241)
[14] = molecular target: ICK (Homo sapiens (Human), UniProt Q9UPZ9)
[15] = molecular target: INSR (Homo sapiens (Human), UniProt P06213)
[16] = molecular target: IRAK1 (Homo sapiens (Human), UniProt P51617)
[17] = molecular target: KIT(D816H) (Homo sapiens (Human), UniProt P10721, D816H)
[18] = molecular target: KIT(L576P) (Homo sapiens (Human), UniProt P10721, L576P)
[19] = molecular target: MAP3K2 (Homo sapiens (Human), UniProt Q9Y2U5)
[20] = molecular target: MEK4 (Homo sapiens (Human), UniProt P45985)
[21] = molecular target: p38-alpha (Homo sapiens (Human), UniProt Q16539)
[22] = molecular target: PAK3 (Homo sapiens (Human), UniProt O75914)
[23] = molecular target: PCTK2 (Homo sapiens (Human), UniProt Q00537)
[24] = molecular target: PIP5K1A (Homo sapiens (Human), UniProt Q99755)
[25] = molecular target: SIK (Homo sapiens (Human), UniProt P57059)
[26] = molecular target: SYK (Homo sapiens (Human), UniProt P43405)
[27] = molecular target: TGFBR1 (Homo sapiens (Human), UniProt P36897)
[28] = molecular target: TYRO3 (Homo sapiens (Human), UniProt Q06418)
[29] = molecular target: YANK1 (Homo sapiens (Human), UniProt Q8WU08)

MEK4, sequence (P45985 whole entry): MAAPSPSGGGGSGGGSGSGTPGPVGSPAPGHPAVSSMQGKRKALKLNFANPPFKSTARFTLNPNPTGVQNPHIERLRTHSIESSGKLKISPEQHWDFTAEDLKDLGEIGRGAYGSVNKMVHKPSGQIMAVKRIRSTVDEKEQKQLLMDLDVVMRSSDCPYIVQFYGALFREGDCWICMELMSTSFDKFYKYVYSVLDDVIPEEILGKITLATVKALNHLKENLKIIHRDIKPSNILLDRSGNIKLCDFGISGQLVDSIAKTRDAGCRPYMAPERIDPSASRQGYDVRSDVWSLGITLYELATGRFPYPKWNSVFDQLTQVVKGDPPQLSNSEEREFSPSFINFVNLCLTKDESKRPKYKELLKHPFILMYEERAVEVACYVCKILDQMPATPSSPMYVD
CDKL2, sequence (Q92772 whole entry): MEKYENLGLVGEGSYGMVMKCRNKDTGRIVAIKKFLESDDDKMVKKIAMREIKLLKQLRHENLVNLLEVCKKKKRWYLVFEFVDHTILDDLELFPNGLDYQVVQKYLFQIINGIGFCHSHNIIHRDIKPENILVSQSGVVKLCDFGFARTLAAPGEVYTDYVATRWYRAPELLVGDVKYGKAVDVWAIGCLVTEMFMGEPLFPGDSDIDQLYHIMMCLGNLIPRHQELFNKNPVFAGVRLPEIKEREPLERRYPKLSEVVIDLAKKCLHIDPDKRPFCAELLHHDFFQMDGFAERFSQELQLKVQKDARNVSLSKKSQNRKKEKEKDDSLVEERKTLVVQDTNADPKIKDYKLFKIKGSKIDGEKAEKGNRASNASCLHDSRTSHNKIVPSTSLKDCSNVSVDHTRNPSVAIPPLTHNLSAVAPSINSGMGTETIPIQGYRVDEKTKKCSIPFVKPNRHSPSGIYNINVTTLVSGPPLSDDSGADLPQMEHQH
FLT3, sequence (P36888 27-993): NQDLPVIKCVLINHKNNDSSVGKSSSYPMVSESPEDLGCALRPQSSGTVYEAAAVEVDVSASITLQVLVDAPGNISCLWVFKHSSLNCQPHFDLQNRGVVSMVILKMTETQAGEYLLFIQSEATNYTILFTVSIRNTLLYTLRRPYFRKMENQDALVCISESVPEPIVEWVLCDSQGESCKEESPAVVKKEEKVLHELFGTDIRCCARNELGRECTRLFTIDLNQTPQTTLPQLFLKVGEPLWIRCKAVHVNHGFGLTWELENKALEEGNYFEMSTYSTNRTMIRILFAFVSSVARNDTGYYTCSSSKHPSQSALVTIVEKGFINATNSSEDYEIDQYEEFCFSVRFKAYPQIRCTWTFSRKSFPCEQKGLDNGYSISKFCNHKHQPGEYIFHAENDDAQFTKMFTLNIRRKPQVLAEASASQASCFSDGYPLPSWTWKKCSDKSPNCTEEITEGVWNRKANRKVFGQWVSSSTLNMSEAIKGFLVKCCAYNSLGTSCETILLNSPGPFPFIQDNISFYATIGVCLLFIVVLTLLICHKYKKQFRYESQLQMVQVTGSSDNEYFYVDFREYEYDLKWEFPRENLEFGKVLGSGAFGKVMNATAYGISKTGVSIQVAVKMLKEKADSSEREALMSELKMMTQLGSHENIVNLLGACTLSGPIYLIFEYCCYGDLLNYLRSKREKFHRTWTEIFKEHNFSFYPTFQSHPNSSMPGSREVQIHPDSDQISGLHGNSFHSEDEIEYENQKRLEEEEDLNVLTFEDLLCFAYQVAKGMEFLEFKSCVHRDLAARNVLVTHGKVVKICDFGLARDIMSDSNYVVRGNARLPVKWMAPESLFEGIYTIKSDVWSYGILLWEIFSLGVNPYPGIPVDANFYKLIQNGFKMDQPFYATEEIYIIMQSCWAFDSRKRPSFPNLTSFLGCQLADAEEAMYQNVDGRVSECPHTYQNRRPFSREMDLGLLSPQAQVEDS
KIT(D816H), sequence (P10721 26-976 D816H): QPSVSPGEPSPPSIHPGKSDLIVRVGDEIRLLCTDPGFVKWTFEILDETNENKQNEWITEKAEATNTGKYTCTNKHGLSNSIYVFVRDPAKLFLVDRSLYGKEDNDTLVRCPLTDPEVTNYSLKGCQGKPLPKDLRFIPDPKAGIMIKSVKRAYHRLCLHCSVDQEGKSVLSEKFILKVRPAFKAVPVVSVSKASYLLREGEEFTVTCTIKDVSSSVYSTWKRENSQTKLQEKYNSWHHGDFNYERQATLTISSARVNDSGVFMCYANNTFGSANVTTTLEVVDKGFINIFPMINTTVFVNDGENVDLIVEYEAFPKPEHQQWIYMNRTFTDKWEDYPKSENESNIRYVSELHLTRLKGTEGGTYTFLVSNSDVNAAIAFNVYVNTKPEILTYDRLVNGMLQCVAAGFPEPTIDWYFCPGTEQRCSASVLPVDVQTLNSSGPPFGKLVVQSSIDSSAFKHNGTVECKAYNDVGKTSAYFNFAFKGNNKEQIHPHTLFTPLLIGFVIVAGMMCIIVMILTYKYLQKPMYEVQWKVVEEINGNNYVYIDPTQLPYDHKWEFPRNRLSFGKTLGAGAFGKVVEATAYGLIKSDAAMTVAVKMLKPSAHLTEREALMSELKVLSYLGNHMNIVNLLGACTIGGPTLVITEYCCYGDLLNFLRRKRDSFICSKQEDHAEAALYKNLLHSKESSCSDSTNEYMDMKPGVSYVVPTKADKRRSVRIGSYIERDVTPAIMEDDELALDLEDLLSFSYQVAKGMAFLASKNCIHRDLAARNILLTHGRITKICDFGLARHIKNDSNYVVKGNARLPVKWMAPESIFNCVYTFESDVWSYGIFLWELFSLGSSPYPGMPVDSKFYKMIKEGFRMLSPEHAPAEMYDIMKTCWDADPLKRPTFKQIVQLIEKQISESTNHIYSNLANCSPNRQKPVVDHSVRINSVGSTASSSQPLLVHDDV
IRAK1, sequence (P51617 whole entry): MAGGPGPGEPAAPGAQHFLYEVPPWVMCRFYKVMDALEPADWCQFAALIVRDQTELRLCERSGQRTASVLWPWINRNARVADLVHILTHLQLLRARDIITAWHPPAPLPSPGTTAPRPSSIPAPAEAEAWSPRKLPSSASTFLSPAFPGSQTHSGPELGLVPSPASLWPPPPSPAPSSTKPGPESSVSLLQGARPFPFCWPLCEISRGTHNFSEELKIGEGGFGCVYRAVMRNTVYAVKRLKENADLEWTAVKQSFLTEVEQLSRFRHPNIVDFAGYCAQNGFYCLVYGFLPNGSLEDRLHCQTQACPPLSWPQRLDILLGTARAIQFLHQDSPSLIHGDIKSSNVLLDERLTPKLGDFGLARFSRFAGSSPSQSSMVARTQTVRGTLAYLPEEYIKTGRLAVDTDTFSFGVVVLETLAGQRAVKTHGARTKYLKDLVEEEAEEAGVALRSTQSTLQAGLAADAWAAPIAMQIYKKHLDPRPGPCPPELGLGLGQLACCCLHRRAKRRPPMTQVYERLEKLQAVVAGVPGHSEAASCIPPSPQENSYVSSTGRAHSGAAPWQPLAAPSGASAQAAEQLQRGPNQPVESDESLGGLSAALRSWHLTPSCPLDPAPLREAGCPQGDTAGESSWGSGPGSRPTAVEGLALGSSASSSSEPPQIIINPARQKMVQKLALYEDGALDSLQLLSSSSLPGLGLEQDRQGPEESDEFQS
MAP3K2, sequence (Q9Y2U5 whole entry): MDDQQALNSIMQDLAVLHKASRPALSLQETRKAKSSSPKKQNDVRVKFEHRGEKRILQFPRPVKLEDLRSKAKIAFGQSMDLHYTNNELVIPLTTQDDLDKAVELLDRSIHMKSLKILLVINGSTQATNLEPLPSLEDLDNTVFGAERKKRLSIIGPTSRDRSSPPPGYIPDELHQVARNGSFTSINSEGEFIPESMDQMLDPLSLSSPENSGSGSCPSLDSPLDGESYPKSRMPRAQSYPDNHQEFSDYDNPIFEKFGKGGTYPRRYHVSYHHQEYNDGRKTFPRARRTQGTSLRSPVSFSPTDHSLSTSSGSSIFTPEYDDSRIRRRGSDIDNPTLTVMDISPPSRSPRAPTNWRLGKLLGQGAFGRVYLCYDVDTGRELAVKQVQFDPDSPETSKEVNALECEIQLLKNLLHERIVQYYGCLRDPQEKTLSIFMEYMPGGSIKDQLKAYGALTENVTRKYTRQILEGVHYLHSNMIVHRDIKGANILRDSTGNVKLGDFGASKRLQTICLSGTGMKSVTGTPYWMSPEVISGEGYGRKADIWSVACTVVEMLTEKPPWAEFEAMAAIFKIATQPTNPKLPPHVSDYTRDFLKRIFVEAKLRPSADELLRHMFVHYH
TYRO3, sequence (Q06418 41-890): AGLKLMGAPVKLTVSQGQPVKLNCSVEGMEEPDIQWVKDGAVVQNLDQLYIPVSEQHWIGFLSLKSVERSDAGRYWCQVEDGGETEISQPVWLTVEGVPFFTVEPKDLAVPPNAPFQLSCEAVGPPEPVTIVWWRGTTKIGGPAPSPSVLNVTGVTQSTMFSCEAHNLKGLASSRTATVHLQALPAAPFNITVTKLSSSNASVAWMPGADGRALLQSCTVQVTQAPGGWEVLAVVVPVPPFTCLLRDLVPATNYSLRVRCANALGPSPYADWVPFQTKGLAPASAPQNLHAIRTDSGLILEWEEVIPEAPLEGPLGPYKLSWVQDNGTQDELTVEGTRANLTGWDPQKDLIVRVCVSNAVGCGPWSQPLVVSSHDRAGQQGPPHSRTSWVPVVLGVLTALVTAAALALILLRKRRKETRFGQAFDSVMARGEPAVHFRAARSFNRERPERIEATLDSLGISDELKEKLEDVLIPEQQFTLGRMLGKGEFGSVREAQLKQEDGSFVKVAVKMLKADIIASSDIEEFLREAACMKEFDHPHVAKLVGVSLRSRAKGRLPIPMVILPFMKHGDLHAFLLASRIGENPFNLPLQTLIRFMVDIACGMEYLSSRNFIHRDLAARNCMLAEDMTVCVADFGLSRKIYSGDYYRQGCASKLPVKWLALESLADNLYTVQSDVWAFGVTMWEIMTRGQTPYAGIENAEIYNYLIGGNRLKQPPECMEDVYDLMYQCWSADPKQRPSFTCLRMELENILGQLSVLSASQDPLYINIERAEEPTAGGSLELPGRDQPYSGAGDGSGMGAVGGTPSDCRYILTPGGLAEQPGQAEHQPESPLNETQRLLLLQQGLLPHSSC
KIT(L576P), sequence (P10721 26-976 L576P): as the sequence (P10721 26-976 D816H) above, with L551P, H791D counted along it

## CN(C[C@@H](O)Cc1ccccc1)C(=O)c1cncc(C#Cc2cnn(C(F)F)c2)c1 [Example 2, (S)-5-((1-(difluoromethyl)-1H-pyrazol-4-yl)ethynyl)-N-(2-hydroxy-3-phenylpropyl)-N-methylnicotinamide]
[1]; ABL1(T315I)-phosphorylated
  remaining activity at 0.1 µM: 80%
[2]; ABL1-nonphosphorylated
  remaining activity at 0.1 µM: 72%
[3]; ACVRL1
  remaining activity at 0.1 µM: 100%
[4]; BMX
  remaining activity at 0.1 µM: 100%
[5]; CAMK1D
  remaining activity at 0.1 µM: 100%
[6]; CDKL2
  remaining activity at 0.1 µM: 100%
[7]; CSNK1A1L
  remaining activity at 0.1 µM: 100%
[8]; EGFR(E746-A750del)
  remaining activity at 0.1 µM: 100%
[9]; ERK1
  remaining activity at 0.1 µM: 97%
[10]; FAK
  remaining activity at 0.1 µM: 100%
[11]; FLT3
  remaining activity at 0.1 µM: 100%
[12]; FLT4
  remaining activity at 0.1 µM: 100%
[13]; FYN
  remaining activity at 0.1 µM: 100%
[14]; ICK
  remaining activity at 0.1 µM: 100%
[15]; INSR
  remaining activity at 0.1 µM: 100%
[16]; IRAK1
  remaining activity at 0.1 µM: 91%
[17]; KIT(D816H)
  remaining activity at 0.1 µM: 100%
[18]; KIT(L576P)
  remaining activity at 0.1 µM: 100%
[19]; MAP3K2
  remaining activity at 0.1 µM: 99%
[20]; MEK4
  remaining activity at 0.1 µM: 100%
[21]; p38-alpha
  remaining activity at 0.1 µM: 100%
[22]; PAK3
  remaining activity at 0.1 µM: 71%
[23]; PCTK2
  remaining activity at 0.1 µM: 100%
[24]; PIP5K1A
  remaining activity at 0.1 µM: 100%
[25]; SIK
  remaining activity at 0.1 µM: 100%
[26]; SYK
  remaining activity at 0.1 µM: 97%
[27]; TGFBR1
  remaining activity at 0.1 µM: 100%
[28]; TYRO3
  remaining activity at 0.1 µM: 99%
[29]; YANK1
  remaining activity at 0.1 µM: 100%

## CN(C[C@H](Cc1ccccc1)OP(=O)(O)O)C(=O)c1cncc(C#Cc2cnn(C(F)F)c2)c1 [Example 19, (S)-1-(5-((1-(difluoromethyl)-1H-pyrazol-4-yl)ethynyl)-N-methylnicotinamido)-3-phenylpropan-2-yl dihydrogen phosphate]
[1]
  remaining activity at 0.1 µM: 92%
[2]
  remaining activity at 0.1 µM: 96%
[3]
  remaining activity at 0.1 µM: 100%
[4]
  remaining activity at 0.1 µM: 100%
[5]
  remaining activity at 0.1 µM: 74%
[6]
  remaining activity at 0.1 µM: 95%
[7]
  remaining activity at 0.1 µM: 97%
[8]
  remaining activity at 0.1 µM: 94%
[9]
  remaining activity at 0.1 µM: 95%
[10]
  remaining activity at 0.1 µM: 100%
[11]
  remaining activity at 0.1 µM: 100%
[12]
  remaining activity at 0.1 µM: 100%
[13]
  remaining activity at 0.1 µM: 100%
[14]
  remaining activity at 0.1 µM: 93%
[15]
  remaining activity at 0.1 µM: 100%
[16]
  remaining activity at 0.1 µM: 86%
[17]
  remaining activity at 0.1 µM: 98%
[18]
  remaining activity at 0.1 µM: 98%
[19]
  remaining activity at 0.1 µM: 95%
[20]
  remaining activity at 0.1 µM: 100%
[21]
  remaining activity at 0.1 µM: 100%
[22]
  remaining activity at 0.1 µM: 100%
[23]
  remaining activity at 0.1 µM: 100%
[24]
  remaining activity at 0.1 µM: 92%
[25]
  remaining activity at 0.1 µM: 100%
[26]
  remaining activity at 0.1 µM: 93%
[27]
  remaining activity at 0.1 µM: 100%
[28]
  remaining activity at 0.1 µM: 100%
[29]
  remaining activity at 0.1 µM: 100%
